According to patent US20260015344A1, “PAN-KRAS INHIBITORS” (Mirati Therapeutics, Inc., priority 2022, published 2026):

Columns and labels:
[1] = molecular target: T1, KRas^G13D (Homo sapiens, UniProt P01116, G13D); experiment: KRas Binding Assay (TR-FRET displacement), KRas G13D; conditions: TR-FRET tracer displacement
T1 construct: corresponding to amino acids 1-169, produced at Accelegan Inc; biotin (biotinylated); purchased Accelegan Inc
Experimental: (§1) This Example illustrates that exemplary compounds of the present invention bind to KRas and are capable of displacing a labeled tracer ligand occupying the KRas binding site. KRas^WT, KRas^G12A, KRas^G12C, KRas^G12D, KRas^G12R, KRas^G12S, KRas^G12V, KRas^G13D, or KRas^Q61H was used in the assay.
(§2) The ability of a compound to bind to KRas was measured using a TR-FRET displacement assay. Biotinylated KRas (corresponding to amino acids 1-169, produced at Accelegan Inc.) was incubated with custom made Cy5 labelled tracer, terbium streptavidin (Cisbio Inc.) and compound (1% DMSO final) in buffer (50 mM HEPES, pH 7.5, 5 mM MgCl2, 0.005% Tween-20 and 1 mM DTT). After a 60-minute incubation at room temperature, the reaction was measured using a BMG LABTECH CLARIO star Plus via TR-FRET. […] The POC values were fit to a 4-parameter IC50 equation and the IC50 value reported.

[2] = molecular target: T2, KRas^G12C (Homo sapiens, UniProt P01116, G12C); experiment: KRas Binding Assay (TR-FRET displacement), KRas G12C; conditions: TR-FRET tracer displacement
T2 construct: corresponding to amino acids 1-169, produced at Accelegan Inc; biotin (biotinylated); purchased Accelegan Inc
Experimental: as §1, §2

[3] = molecular target: T3, KRas^G12D (Homo sapiens, UniProt P01116, G12D); experiment: KRas Binding Assay (TR-FRET displacement), KRas G12D; conditions: TR-FRET tracer displacement
T3 construct: corresponding to amino acids 1-169, produced at Accelegan Inc; biotin (biotinylated); purchased Accelegan Inc
Experimental: as §1, §2

[4] = molecular target: T4, KRas^G12V (Homo sapiens, UniProt P01116, G12V); experiment: KRas Binding Assay (TR-FRET displacement), KRas G12V; conditions: TR-FRET tracer displacement
T4 construct: corresponding to amino acids 1-169, produced at Accelegan Inc; biotin (biotinylated); purchased Accelegan Inc
Experimental: as §1, §2

[5] = molecular target: T5, KRas^G12R (Homo sapiens, UniProt P01116, G12R); experiment: KRas Binding Assay (TR-FRET displacement), KRas G12R; conditions: TR-FRET tracer displacement
T5 construct: corresponding to amino acids 1-169, produced at Accelegan Inc; biotin (biotinylated); purchased Accelegan Inc
Experimental: as §1, §2

[6] = molecular target: T6, KRas^G12A (Homo sapiens, UniProt P01116, G12A); experiment: KRas Binding Assay (TR-FRET displacement), KRas G12A; conditions: TR-FRET tracer displacement
T6 construct: corresponding to amino acids 1-169, produced at Accelegan Inc; biotin (biotinylated); purchased Accelegan Inc
Experimental: as §1, §2

[7] = molecular target: T7, KRas^Q61H (Homo sapiens, UniProt P01116, Q61H); experiment: KRas Binding Assay (TR-FRET displacement), KRas Q61H; conditions: TR-FRET tracer displacement
T7 construct: corresponding to amino acids 1-169, produced at Accelegan Inc; biotin (biotinylated); purchased Accelegan Inc
Experimental: as §1, §2

[8] = molecular target: T8, KRas^WT (Homo sapiens, UniProt P01116); experiment: KRas Binding Assay (TR-FRET displacement), KRas WT; conditions: TR-FRET tracer displacement
T8 construct: corresponding to amino acids 1-169, produced at Accelegan Inc; biotin (biotinylated); purchased Accelegan Inc
Experimental: as §1, §2

[9] = molecular target: T9, KRas^G12S (Homo sapiens, UniProt P01116, G12S); experiment: KRas Binding Assay (TR-FRET displacement), KRas G12S; conditions: TR-FRET tracer displacement
T9 construct: corresponding to amino acids 1-169, produced at Accelegan Inc; biotin (biotinylated); purchased Accelegan Inc
Experimental: as §1, §2

[10] = tested on: KRas-mediated Phosphorylation of ERK in H727 cells; experiment: HTRF pERK assay, H727 cells; type: cell-based; conditions: Homo sapiens, NCI-H727, 3 hrs compound incubation, read-out: Inhibition (HTRF IC50 nM) of KRas-mediated Phosphorylation of ERK, H727
Experimental: (§3) • Day 1: Seed 6,000 cells/well-25 μl/well in 384-well white solid bottom plate; RPM1_10% FBS.
(§4) • 1. To harvest cells from flask using 0.05% Trypsin/EDTA solution. Add 10 mL of media to stop trypsinizing. Pipette the cells into a conical bottom 50 mL centrifuge tube and centrifuge 5 min×1000 rpm. • 2. Re-suspend the cell pellet in media, take a cell count, and then adjust the cell density using fresh media. • 3. Seed 6,000 cells into cell culture plate with 50 μL media. The • 4. Incubate cell plate overnight in a 37° C., 5% CO2 incubator.
(§5) • 1. Use Tecan to complete the compound addition. Compounds start from 10 uM top, 3-fold dilution, and 10 doses. The final DMSO concentration is 0.8%. Dispensed 0.2 uM Trametinib as Min control. • 2. Incubate cell plate for 3 hrs in the incubator. Detection with Cisbio pERK HTRF Kit • 1. Dilute 1 volume of 4× lysis buffer with 3 volumes of deionized water. Then, add 100× the blocking reagent. Keep lysis buffer on the ice. • 2. At the end of the compound treatment, flick-off the media. • 3. Add 35 μL of lysis buffer per well using a Multidrop Combi. Then place on a plate agitator shaking at 300 rpm at 4° C. for 40 mins. • 4. Make up the HTRF antibody buffer. For each assay plate, mix 50 μL of d2-conjugate antibody with 950 μL of detection buffer. Similarly, mix 50 μL of Cryptate antibody with 950 μL of detection buffer. Then mix the two diluted antibodies together. • 5. Dispense 3.4 μL the antibody buffer to wells of an empty assay plate. Seal the plate and centrifuge plate 30 sec×1000 rpm. • 6. At the end of the 4° C. lysis, centrifuge the lysate plates 3 mins×1500 rpm. • 7. Use the Bravo to transfer 13.6 μL of lysate from cell culture plate to assay plate. Then incubate assay plate for 2 hrs at room temperature. • 8. At the end of incubation, read plate on the Envision after centrifuging plate 30 sec×1000 rpm.

[11] = tested on: KRas-mediated Phosphorylation of ERK in AsPC-1 cells; experiment: HTRF pERK assay, AsPC-1 cells; type: cell-based; conditions: Homo sapiens, ASPC1, 3 hrs compound incubation, read-out: Inhibition (HTRF IC50 nM) of KRas-mediated Phosphorylation of ERK, AsPC-1
Experimental: as §3, §4, §5

T2 sequence (P01116 1-169 isoform P01116-2 G12C): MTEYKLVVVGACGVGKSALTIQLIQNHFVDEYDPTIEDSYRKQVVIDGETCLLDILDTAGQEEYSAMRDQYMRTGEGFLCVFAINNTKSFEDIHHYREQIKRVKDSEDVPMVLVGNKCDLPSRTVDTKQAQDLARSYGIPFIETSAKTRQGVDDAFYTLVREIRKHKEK
T6 sequence (P01116 1-169 isoform P01116-2 G12A): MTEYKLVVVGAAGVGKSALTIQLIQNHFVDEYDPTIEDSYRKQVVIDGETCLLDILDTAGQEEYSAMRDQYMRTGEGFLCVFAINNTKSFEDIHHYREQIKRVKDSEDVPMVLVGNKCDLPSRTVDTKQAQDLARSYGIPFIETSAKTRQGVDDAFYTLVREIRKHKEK
T8 sequence (P01116 1-169 isoform P01116-2): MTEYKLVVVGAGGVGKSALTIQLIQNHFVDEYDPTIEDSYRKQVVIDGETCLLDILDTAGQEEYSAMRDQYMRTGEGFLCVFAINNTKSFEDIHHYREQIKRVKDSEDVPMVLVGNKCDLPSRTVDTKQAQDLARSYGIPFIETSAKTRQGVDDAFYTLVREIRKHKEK
T3 sequence (P01116 1-169 isoform P01116-2 G12D): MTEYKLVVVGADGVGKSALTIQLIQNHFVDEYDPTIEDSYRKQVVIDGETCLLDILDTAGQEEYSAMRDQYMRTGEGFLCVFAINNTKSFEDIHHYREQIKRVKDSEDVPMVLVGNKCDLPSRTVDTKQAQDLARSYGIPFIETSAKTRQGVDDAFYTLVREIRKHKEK
T7 sequence (P01116 1-169 isoform P01116-2 Q61H): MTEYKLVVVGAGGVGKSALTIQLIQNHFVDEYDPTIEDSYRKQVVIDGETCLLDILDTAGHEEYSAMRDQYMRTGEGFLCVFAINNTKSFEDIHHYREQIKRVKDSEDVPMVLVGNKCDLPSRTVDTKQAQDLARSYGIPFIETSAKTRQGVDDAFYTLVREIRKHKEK
T5 sequence (P01116 1-169 isoform P01116-2 G12R): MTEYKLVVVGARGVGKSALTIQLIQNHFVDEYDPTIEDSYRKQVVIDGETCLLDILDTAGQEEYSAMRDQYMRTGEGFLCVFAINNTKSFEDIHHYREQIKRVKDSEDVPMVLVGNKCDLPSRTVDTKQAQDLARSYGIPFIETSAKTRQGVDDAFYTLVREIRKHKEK
T1 sequence (P01116 1-169 isoform P01116-2 G13D): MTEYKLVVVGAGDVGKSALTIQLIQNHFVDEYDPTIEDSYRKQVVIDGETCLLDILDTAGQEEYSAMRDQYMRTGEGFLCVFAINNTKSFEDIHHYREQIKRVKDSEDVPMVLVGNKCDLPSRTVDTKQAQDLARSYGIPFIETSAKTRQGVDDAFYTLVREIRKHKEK
T4 sequence (P01116 1-169 isoform P01116-2 G12V): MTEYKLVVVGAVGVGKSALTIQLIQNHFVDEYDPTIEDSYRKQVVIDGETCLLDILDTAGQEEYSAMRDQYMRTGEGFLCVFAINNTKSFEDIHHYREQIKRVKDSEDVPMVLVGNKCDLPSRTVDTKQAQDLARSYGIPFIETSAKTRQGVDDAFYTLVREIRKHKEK
T9 sequence (P01116 1-169 isoform P01116-2 G12S): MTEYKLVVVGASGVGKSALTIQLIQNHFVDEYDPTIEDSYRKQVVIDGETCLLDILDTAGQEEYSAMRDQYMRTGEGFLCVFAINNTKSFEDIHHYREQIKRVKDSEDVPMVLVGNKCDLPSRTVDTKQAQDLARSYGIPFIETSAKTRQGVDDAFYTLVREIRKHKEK

Row | IC50 [1] | IC50 [2] | IC50 [3] | IC50 [4] | IC50 [5] | IC50 [6] | IC50 [7] | IC50 [8] | IC50 [9] | IC50 [10] | IC50 [11] | SMILES
1 | 37 nM | 54 nM | 18 nM | 6 nM | 4 nM | 49 nM | 36 nM | 14 nM | 41 nM | – | – | C[C@H](Oc1nc(-c2noc(C3(C)CCCc4sc(N)c(C#N)c43)n2)cc(N2CCCC3(C2)NC(=O)NC3=O)n1)[C@@H]1CCCN1C (stereo partly drawn) [Example 2, 2-amino-4-(3-(6-(2,4-dioxo-1,3,7-triazaspiro[4.5]decan-7-yl)-2-((S)-1-((S)-1-methylpyrrolidin-2-yl)ethoxy)pyrimidin-4-yl)-1,2,4-oxadiazol-5-yl)-4-methyl-4,5,6,7-tetrahydrobenzo[b]thiophene-3-carbonitrile]
2 | 24 nM | 26 nM | 6 nM | 5 nM | 4 nM | 29 nM | 26 nM | 10 nM | 23 nM | – | – | C[C@H](Oc1nc(-c2noc(C3(C)CCCc4sc(N)c(C#N)c43)n2)cc(N2CCCC3(CNS(=O)(=O)N3)C2)n1)[C@@H]1CCCN1C (stereo partly drawn) [Example 4, 2-amino-4-(3-(6-(2,2-dioxido-2-thia-1,3,7-triazaspiro[4.5]decan-7-yl)-2-((S)-1-((S)-1-methylpyrrolidin-2-yl)ethoxy)pyrimidin-4-yl)-1,2,4-oxadiazol-5-yl)-4-methyl-4,5,6,7-tetrahydrobenzo[b]thiophene-3-carbonitrile]
3 | 269 nM | 313 nM | 413 nM | 62 nM | 38 nM | 250 nM | 233 nM | 69 nM | 265 nM | – | – | C[C@H](Oc1nc(-c2noc(C3(C)CCCc4sc(N)c(C#N)c43)n2)cc(N2C[C@@H]3C[C@H](C2)[C@H](O)C3)n1)[C@@H]1CCCN1C (stereo partly drawn) [Example 5, 2-amino-4-(3-(6-((1R,5R,6R)-6-hydroxy-3-azabicyclo[3.2.1]octan-3-yl)-2-((S)-1-((S)-1-methylpyrrolidin-2-yl)ethoxy)pyrimidin-4-yl)-1,2,4-oxadiazol-5-yl)-4-methyl-4,5,6,7-tetrahydrobenzo[b]thiophene-3-carbonitrile]
4 | 1080 nM | 1110 nM | 1830 nM | 746 nM | 669 nM | 1590 nM | 1110 nM | 474 nM | 1520 nM | > 10000 nM | 7720 nM | C[C@H](Oc1nc(-c2noc(C3(C)CCCc4sc(N)c(C#N)c43)n2)cc(N2CCCn3nc(C(=O)N(C)C)cc3C2)n1)[C@@H]1CCCN1C (stereo partly drawn) [Example 6, 5-(6-(5-(2-amino-3-cyano-4-methyl-4,5,6,7-tetrahydrobenzo[b]thiophen-4-yl)-1,2,4-oxadiazol-3-yl)-2-((S)-1-((S)-1-methylpyrrolidin-2-yl)ethoxy)pyrimidin-4-yl)-N,N-dimethyl-5,6,7,8-tetrahydro-4H-pyrazolo[1,5-a][1,4]diazepine-2-carboxamide]
5 | 128 nM | 174 nM | 127 nM | 46 nM | 23 nM | 132 nM | 170 nM | 129 nM | 158 nM | 4470 nM | 5840 nM | C[C@H](Oc1nc(-c2cc(C3(C)CCCc4sc(N)c(C#N)c43)sn2)cc(N2CCC[C@@](C)(O)C2)n1)[C@@H]1CCCN1C (stereo partly drawn) [Example 7, 2-amino-4-(3-(6-((R)-3-hydroxy-3-methylpiperidin-1-yl)-2-((S)-1-((S)-1-methylpyrrolidin-2-yl)ethoxy)pyrimidin-4-yl)isothiazol-5-yl)-4-methyl-4,5,6,7-tetrahydrobenzo[b]thiophene-3-carbonitrile]
6 | 167 nM | 275 nM | 505 nM | 96 nM | 59 nM | 204 nM | 224 nM | 160 nM | 296 nM | 3380 nM | 7400 nM | C[C@H](Oc1nc(-c2cc(C3(C)CCCc4sc(N)c(C#N)c43)sn2)cc(N2C[C@@H]3C[C@H](C2)[C@H](O)C3)n1)[C@@H]1CCCN1C (stereo partly drawn) [Example 8, 2-amino-4-(3-(6-((1R,5R,6R)-6-hydroxy-3-azabicyclo[3.2.1]octan-3-yl)-2-((S)-1-((S)-1-methylpyrrolidin-2-yl)ethoxy)pyrimidin-4-yl)isothiazol-5-yl)-4-methyl-4,5,6,7-tetrahydrobenzo[b]thiophene-3-carbonitrile]
7 | 190 nM | 262 nM | 93 nM | 76 nM | 34 nM | 240 nM | 263 nM | 326 nM | 188 nM | – | – | C[C@H](Oc1nc(-c2cc(C3(C)CCCc4sc(N)c(C#N)c43)sn2)cc(N2CCCC3(C2)NC(=O)NC3=O)n1)[C@@H]1CCCN1C (stereo partly drawn) [Example 11, 2-amino-4-(3-(6-(2,4-dioxo-1,3,7-triazaspiro[4.5]decan-7-yl)-2-((S)-1-((S)-1-methylpyrrolidin-2-yl)ethoxy)pyrimidin-4-yl)isothiazol-5-yl)-4-methyl-4,5,6,7-tetrahydrobenzo[b]thiophene-3-carbonitrile]
8 | 584 nM | 457 nM | 623 nM | 163 nM | 156 nM | 551 nM | 533 nM | 417 nM | 596 nM | – | – | C[C@H](Oc1nc(-c2cc(C3(C)CCCc4sc(N)c(C#N)c43)sn2)cc(N2CCCn3nc(C(=O)N(C)C)cc3C2)n1)[C@@H]1CCCN1C (stereo partly drawn) [Example 12, 5-(6-(5-(2-amino-3-cyano-4-methyl-4,5,6,7-tetrahydrobenzo[b]thiophen-4-yl)isothiazol-3-yl)-2-((S)-1-((S)-1-methylpyrrolidin-2-yl)ethoxy)pyrimidin-4-yl)-N,N-dimethyl-5,6,7,8-tetrahydro-4H-pyrazolo[1,5-a][1,4]diazepine-2-carboxamide]

Row | SMILES | IC50 [1] | IC50 [2] | IC50 [3] | IC50 [4] | IC50 [5] | IC50 [6] | IC50 [7] | IC50 [8] | IC50 [9] | IC50 [10] | IC50 [11]
9 | C[C@H](Oc1nc(-c2cc(C3(C)CCCc4sc(N)c(C#N)c43)sn2)cc(N2C[C@H]3CC[C@@H](C2)N3)n1)[C@@H]1CCCN1C (stereo partly drawn) [Example 9, 4-(3-(6-((1R,5S)-3,8-diazabicyclo[3.2.1]octan-3-yl)-2-((S)-1-((S)-1-methylpyrrolidin-2-yl)ethoxy)pyrimidin-4-yl)isothiazol-5-yl)-2-amino-4-methyl-4,5,6,7-tetrahydrobenzo[b]thiophene-3-carbonitrile] | 1320 nM | 3490 nM | 36 nM | 1040 nM | 1340 nM | 3080 nM | 2290 nM | 566 nM | 3420 nM | ≥ 10000 nM | 3010 nM
